According to paper PMC3646888 (PLoS ONE, 2013):
Entries after “also recorded” stand apart in the source; their conditions may differ.

Tests used:
Format in all cases: in vitro ADME
[1] = target: T1, CYP2B1 (Rattus norvegicus, UniProt P00176); assay: Fluorescence-based CYP assay, recombinant CYP2B1, substrate EFC
T1 sequence (P00176 1-491): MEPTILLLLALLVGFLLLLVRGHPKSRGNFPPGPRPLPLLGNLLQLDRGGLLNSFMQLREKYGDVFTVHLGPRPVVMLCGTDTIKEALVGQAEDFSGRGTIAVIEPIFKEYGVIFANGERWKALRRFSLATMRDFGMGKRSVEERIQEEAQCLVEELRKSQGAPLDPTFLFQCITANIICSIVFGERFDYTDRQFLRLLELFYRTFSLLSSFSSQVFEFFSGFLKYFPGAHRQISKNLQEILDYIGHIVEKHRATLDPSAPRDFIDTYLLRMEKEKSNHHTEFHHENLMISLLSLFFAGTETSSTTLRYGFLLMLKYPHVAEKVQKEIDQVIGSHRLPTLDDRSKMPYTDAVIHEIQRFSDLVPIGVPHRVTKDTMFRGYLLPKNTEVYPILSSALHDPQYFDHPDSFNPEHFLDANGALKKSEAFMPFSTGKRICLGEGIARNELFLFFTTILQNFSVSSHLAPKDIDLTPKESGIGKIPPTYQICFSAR
Protocol: (§1) These assays were performed by methods similar to those described by VanAlstine and Hough, Stresser et al., Wulff et al., Henderson et al., and Crespi et al., with minor modifications. All incubations were performed in a final volume of 200 µL of 50 mM potassium phosphate buffer at pH 7.4 containing 1% acetonitrile. CYP inhibitor studies were performed according to the parameters of Table 1. Substrate concentrations were chosen to be near known Km values. As described in the references cited, two different NADPH regenerating systems were used depending on the substrates used (Table 1). Inhibitors were added to either “low” NADPH-regenerating system (final concentration of 8.1 µM NADP^+, 0.4 mM glucose-6-phosphate, 0.4 mM magnesium chloride, 0.2 U/mL glucose-6-phosphate dehydrogenase) or to “high” NADPH-regenerating system (final concentration of 1.3 mM NADP^+, 3.3 mM glucose-6-phosphate, 3.3 mM magnesium chloride, 0.4 U/mL glucose-6-phosphate dehydrogenase) in a total of 0.1 mL buffer. […] For assays utilizing “low” regenerating systems, product formation was monitored continuously by a Victor3 1420 Multilabel Plate Counter at the designated wavelengths (Table 1). […] Product formation was then measured at the designated wavelengths (Table 1). […]

[2] = target: T2, CYP2C11 (Rattus norvegicus, UniProt P08683); assay: Fluorescence-based CYP assay, recombinant CYP2C11, substrate DBF
T2 sequence (P08683 1-500): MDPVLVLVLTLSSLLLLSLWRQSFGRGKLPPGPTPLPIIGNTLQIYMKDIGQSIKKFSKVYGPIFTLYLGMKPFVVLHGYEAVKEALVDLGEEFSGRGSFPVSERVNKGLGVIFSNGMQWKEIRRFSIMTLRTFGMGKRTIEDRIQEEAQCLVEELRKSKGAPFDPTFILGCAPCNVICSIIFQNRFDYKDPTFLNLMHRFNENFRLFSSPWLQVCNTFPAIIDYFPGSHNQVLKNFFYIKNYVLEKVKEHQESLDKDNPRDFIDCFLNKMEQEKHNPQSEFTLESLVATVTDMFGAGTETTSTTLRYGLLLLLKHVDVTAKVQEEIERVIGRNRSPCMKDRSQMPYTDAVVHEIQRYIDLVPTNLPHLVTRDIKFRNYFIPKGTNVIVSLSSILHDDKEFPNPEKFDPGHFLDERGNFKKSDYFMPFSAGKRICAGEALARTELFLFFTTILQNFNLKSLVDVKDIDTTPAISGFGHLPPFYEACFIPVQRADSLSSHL
Protocol: as §1

[3] = target: CYP2C19 (Homo sapiens, UniProt P33261); assay: Fluorescence-based CYP assay, recombinant CYP2C19, substrate DBF
Protocol: as §1

[4] = target: T3, CYP1A2r (Rattus norvegicus, UniProt P04799); assay: Fluorescence-based CYP assay, recombinant CYP1A2r, substrate EFC
T3 sequence (P04799 1-513): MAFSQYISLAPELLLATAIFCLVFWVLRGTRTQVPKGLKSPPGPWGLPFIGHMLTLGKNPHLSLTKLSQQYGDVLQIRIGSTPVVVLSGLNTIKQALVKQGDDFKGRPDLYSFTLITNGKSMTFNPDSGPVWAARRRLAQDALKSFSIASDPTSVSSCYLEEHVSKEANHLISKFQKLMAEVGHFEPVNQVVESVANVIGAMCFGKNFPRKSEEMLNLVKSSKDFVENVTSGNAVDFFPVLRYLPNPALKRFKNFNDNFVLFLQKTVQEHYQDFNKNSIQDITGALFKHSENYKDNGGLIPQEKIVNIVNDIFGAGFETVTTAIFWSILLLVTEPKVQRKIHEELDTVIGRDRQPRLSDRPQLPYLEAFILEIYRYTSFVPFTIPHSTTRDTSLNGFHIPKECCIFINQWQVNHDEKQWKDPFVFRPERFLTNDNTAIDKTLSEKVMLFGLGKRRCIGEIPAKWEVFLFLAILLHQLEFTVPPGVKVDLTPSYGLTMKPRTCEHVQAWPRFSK
Protocol: These assays were performed by methods similar to those described by VanAlstine and Hough, Stresser et al., Wulff et al., Henderson et al., and Crespi et al., with minor modifications. All incubations were performed in a final volume of 200 µL of 50 mM potassium phosphate buffer at pH 7.4 containing 1% acetonitrile. CYP inhibitor studies were performed according to the parameters of Table 1. Substrate concentrations were chosen to be near known Km values. As described in the references cited, two different NADPH regenerating systems were used depending on the substrates used (Table 1). […] Samples were pre-incubated at 37°C for the designated times, and the reactions were initiated with the addition of a substrate and enzyme mixtures (Table 1). […] For the assays utilizing the “high” regenerating system, enzyme reactions were terminated at the designated time by the addition of 75 µL of 2N NaOH, followed by a 2 h post-incubation at 37°C. Product formation was then measured at the designated wavelengths (Table 1). For the “low” regenerating system assays, blanks and standards were prepared in 0.1 mL buffer without the regenerating system. For the “high” regenerating system assays, blanks and standards containing 0.1 mL of buffer received 75 µL of 2N NaOH following pre-incubation.

Sequence of CYP2C19 (P33261 whole entry): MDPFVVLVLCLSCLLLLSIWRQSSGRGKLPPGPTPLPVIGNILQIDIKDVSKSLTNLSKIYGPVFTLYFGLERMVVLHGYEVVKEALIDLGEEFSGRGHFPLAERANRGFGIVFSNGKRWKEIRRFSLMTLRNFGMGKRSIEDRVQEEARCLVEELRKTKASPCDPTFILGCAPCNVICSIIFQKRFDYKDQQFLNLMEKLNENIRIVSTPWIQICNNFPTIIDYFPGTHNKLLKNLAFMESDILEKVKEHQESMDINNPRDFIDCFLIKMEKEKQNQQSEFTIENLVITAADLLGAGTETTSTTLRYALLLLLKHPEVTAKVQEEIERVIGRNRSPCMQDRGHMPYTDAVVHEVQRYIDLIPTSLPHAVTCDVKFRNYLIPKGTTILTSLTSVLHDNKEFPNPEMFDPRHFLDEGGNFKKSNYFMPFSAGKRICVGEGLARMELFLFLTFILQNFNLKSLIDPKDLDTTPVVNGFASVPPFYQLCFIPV

Row | SMILES | Inhibition of CYP2B1 (in words) ([1]; positive control) | Inhibition of CYP2C11 (in words) ([2]; positive control) | Inhibition of CYP2C19 (in words) ([3]; recombinant enzyme) | Inhibition of CYP1A2r (in words) ([4]; clotrimazole concentration-response, Fig. 1C) | IC50 [1] | IC50 [2] | IC50 [3] | IC50 [4] | Inhibition of CYP1A2r (in words) ([4]; concentrations up to 80 µM)
1 | Clc1ccccc1C(c1ccccc1)(c1ccccc1)n1ccnc1 [Clotrimazole] | potent inhibitor | potent inhibitor | potent inhibitor | only partly inhibited | – | – | – | – | –
2 | Clc1ccccc1C(c1ccccc1)(c1ccccc1)n1cccn1 [TRAM-34, 1-[(2-chlorophenyl)diphenylmethyl]-1H-pyrazole] | – | – | – | – | 3 µM | 12.6 µM | 1.8 µM | > 80 µM | no inhibition; also recorded: no inhibitory effects
